Laboratory results: paper PMC4364779, “IMD-4690, a Novel Specific Inhibitor for Plasminogen Activator Inhibitor-1, Reduces Allergic Airway Remodeling in a Mouse Model of Chronic Asthma via Regulating Angiogenesis and Remodeling-Related Mediators” (PLoS ONE, 2015)

Assays:
[1] = biological target: binding of tPA and PAI-1 (Homo sapiens, UniProt P05121); experiment: Inhibition of tPA/PAI-1 complex formation (SDS-PAGE, silver staining, densitometry); details: recombinant PAI-1 + IMD-4690 in PBS 37°C 5 min, then tPA 37°C 5 min; tPA/PAI-1 complex band densitometry
Protocol: Fig 1 Schedule of in vivo experiments and biological activity of IMD-4690. (A) Protocols for the mouse experiments. (B) Inhibitory effects of IMD-4690 on the binding of tPA and PAI-1. The recombinant PAI-1 and IMD-4690 were mixed and incubated in PBS at 37°C for 5 min. Then tPA was added. After incubation at 37°C for 5 min, samples were applied for 10% SDS-PAGE and visualized with a silver staining. The bands of tPA/PAI-1 complex were quantified by a densitometry, and calculated IC50.
A synthetic PAI-1 inhibitor, IMD-4690, 2-[[3-(4-tert-Butylphenoxy)-4'- (trifluoromethoxy) [1,1'-biphenyl]-4-yl]oxy] acetic acid, was molecularly designed, synthesized. IMD-4690 inhibited the binding of tPA and PAI-1 at the IC50 of 8 μM (Fig. 1B).

[2] = biological target: human PAI-1 (Homo sapiens, UniProt P05121); experiment: Direct tPA assay of PAI-1 activity (fluorescent substrate Pyr-Gly-Arg-MCA); assay type: biochemical; details: recombinant tPA and PAI-1, read-out: IC50 of human PAI-1 inhibition
Protocol: (§1) Inhibitory effect of IMD-4690 on the activity of PAI-1 was measured by the direct tPA assay. Briefly, recombinant tPA and PAI-1 was mixed with IMD-4690, and then tPA substrate with fluorescent pigment (Pyr-Gly-Arg-MCA) was added in this mixture and incubated. The enzymatic activity was calculated by measuring the fluorescence. The inhibitory activity of IMD-4690 on other enzymes was measured with the similar method.

[3] = Body weight and adverse effects in Dp-sensitized mice; assay type: in vivo, mouse; details: 10 mg/kg i.p.
Description: Six-week-old female BALB/c mice (15–20 g) were purchased from CLEA Japan Inc. (Tokyo, Japan). Mice were maintained in the animal facility of the University of Tokushima according to the guidelines of the ethics committee of our university. The present study was approved by Institutional Animal Care and Use Committee of the University of Tokushima (Permission Number: 11134). Mice were housed under specific pathogen-free conditions with 12-h light/dark cycle in a temperature-controlled room with free access to food and water. Mice were monitored weekly for body weight and daily for food and water intake and assessed visually for signs of clinical disease including inactivity, labored respiration and ruffled fur.
(§2) All mice were sensitized on days 0 and 7 by intraperitoneal injections of 10 μg of Dp dissolved in 500 μL saline and mixed with 1mg of Alum (Sigma-Aldrich Japan). Dp-sensitized mice were challenged intranasally with 10 μg (10 μL) Dp in 70 μL saline on alternate days, 3 days per week, from days 14 to 67. The mice were also treated intraperitoneally with IMD-4690 (10 mg/kg) (Dp/IMD group) or CMC alone (Dp/CMC group) at the same day with Dp challenge. As a control, mice were challenged with saline and given CMC during this period (control/CMC group) (Fig. 1A). Each experiment was performed using six mice per group.

[4] = system: chronic allergen exposure model of bronchial asthma in mice; experiment: Total lung collagen (Sircol assay), chronic Dp asthma model; assay type: in vivo, mouse; details: day 70, 10 mg/kg i.p., vs Dp/CMC mice
Protocol: as §2
The left lungs were harvested on day 70 and used for collagen assays. Total lung collagen was determined using a Sircol Collagen Assay kit (Biocolor Ltd, Belfast, Northern Ireland) according to the manufacturer’s instructions.

[5] = biological target: PAI-2 (SERPINB2) (Homo sapiens, UniProt P05120); experiment: SERPIN inhibition selectivity, similar enzymatic method; assay type: biochemical; details: Ser protease: uPA
Protocol: as §1

[6] = biological target: Anti-thrombin (AT3/SERPINC1) (Homo sapiens, UniProt P01008); experiment: as above; assay type: biochemical; details: Ser protease: Thrombin, factor Xa
Protocol: as §1

[7] = biological target: T1, α1-anti-plasmin (SERPINF2) (Homo sapiens, UniProt P08697); experiment: as above; assay type: biochemical; details: Ser protease: Plasmin
T1 sequence (P08697 40-491): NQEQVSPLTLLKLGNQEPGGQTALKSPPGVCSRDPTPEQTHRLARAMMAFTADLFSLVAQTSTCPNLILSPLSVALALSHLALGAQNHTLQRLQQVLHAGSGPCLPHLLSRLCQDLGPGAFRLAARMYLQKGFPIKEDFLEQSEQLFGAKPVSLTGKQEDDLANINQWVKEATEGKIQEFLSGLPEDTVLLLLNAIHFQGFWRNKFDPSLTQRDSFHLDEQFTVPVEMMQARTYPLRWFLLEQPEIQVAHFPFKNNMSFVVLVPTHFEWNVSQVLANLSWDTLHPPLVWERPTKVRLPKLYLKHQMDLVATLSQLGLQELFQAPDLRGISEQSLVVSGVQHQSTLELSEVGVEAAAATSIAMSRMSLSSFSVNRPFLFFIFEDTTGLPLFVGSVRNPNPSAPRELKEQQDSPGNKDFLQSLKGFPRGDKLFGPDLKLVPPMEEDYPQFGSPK
Protocol: as §1

[8] = biological target: T2, α1-anti-chymotrypsin (SERPINA3) (Homo sapiens, UniProt P01011); experiment: as above; assay type: biochemical; details: Ser protease: Chymotrypsin, Cathepsin G
T2 sequence (P01011 24-423): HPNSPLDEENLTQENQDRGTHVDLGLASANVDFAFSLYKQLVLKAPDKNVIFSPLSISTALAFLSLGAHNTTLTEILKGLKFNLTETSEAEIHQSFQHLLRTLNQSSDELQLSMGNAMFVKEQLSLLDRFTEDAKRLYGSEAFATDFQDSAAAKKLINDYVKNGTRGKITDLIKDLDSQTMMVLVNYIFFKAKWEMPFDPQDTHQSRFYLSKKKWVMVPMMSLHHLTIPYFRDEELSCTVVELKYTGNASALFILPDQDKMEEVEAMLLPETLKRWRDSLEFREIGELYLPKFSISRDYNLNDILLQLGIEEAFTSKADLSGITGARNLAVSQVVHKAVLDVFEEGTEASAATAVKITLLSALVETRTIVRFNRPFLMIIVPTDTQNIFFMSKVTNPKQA
Protocol: as §1

PAI-2 (SERPINB2), sequence (P05120 whole entry): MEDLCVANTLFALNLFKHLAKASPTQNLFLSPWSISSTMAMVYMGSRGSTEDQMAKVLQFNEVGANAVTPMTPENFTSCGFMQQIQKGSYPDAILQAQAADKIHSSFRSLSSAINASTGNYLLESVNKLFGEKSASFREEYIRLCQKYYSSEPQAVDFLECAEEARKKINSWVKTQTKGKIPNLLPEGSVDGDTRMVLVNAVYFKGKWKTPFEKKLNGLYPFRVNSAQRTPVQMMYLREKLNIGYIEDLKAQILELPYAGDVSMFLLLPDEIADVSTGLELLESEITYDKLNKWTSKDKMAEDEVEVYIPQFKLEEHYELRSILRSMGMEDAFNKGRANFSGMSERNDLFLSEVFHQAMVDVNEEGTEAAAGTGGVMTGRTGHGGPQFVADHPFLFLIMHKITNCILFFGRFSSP
binding of tPA and PAI-1, sequence (P05121 24-402): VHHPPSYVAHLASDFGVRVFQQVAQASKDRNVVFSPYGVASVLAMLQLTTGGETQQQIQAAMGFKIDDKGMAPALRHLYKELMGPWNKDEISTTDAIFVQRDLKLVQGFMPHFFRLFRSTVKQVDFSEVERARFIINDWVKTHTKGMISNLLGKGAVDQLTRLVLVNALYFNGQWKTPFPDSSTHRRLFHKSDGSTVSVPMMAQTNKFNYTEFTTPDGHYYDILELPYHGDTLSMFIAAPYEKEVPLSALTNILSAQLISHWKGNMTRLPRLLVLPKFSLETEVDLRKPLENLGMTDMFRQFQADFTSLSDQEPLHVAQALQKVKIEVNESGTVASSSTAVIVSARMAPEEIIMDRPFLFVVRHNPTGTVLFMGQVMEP
human PAI-1, sequence (P05121 24-402): as above
Anti-thrombin (AT3/SERPINC1), sequence (P01008 33-464): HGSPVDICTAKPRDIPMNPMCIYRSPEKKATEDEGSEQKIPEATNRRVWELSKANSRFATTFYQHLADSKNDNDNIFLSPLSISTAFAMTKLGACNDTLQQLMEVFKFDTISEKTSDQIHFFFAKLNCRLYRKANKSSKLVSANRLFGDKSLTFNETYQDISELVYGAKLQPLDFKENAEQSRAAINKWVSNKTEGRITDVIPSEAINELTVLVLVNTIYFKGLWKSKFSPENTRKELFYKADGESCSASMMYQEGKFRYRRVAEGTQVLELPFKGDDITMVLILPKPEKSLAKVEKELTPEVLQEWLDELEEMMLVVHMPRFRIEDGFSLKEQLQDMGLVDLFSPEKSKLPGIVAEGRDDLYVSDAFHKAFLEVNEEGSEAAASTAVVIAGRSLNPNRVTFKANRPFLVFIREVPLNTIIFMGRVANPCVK

IC50 [1]: 8 µM
IC50 [2]: 1.1 µM
IC50 [5]: > 25 µM
IC50 [6]: > 25 µM
IC50 [7]: > 25 µM
IC50 [8]: > 25 µM
Structure (SMILES): CC(C)(C)c1ccc(Oc2cc(-c3ccc(OC(F)(F)F)cc3)ccc2OCC(=O)O)cc1 [IMD-4690, 2-[[3-(4-tert-Butylphenoxy)-4'-(trifluoromethoxy) [1,1'-biphenyl]-4-yl]oxy] acetic acid]
Adverse effects in the mouse model ([3]; chronic Dp model): could not find any adverse effects
Changes in body weight ([3]; Dp-sensitized mice): did not show any weight loss
Total collagen in the lungs [4]: reduced
